From the supplement of paper PMC10883282
± gives the standard deviation of the averaged measurements.

Columns and labels:
Test in all cases: relative viability vs DMSO control (72 h) (fraction); higher = more viable cells
SK-LMS-1 = system: SK-LMS-1
Summary of the method: (§1)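 Sarcoma cell lines were grown in 384-well plates seeded toward 80–90% confluence and exposed 24 h later to serially diluted compound. After 72 h at 37 °C and 5% CO2, with 0.1% DMSO vehicle and a 5 µM positive control on the plates, ATPLite was read. Relative viability, given as percent growth averaged over up to triplicate wells, was rescaled so that 1 is full and 0 is none.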

G401 = system: G401
Summary of the method: as §1

RD-ES = system: RD-ES
Summary of the method: as §1

KHOS-NP = system: KHOS-NP
Summary of the method: as §1

SW872 = system: SW872
Summary of the method: as §1

MES-SA = system: MES-SA
Summary of the method: as §1

VA-ES-BJ = system: VA-ES-BJ
Summary of the method: as §1

SW1353 = system: SW1353
Summary of the method: as §1

HT1080 = system: HT1080
Summary of the method: as §1

RD = system: RD
Summary of the method: as §1

SW684 = system: SW684
Summary of the method: as §1

SK-ES-1 = system: SK-ES-1
Summary of the method: as §1

SMILES: Cc1cc(Nc2ncc(Cl)c(Nc3ccccc3S(=O)(=O)C(C)C)n2)c(OC(C)C)cc1C1CCNCC1 [Ceritinib]
- relative viability (SK-LMS-1; 0.00017 µM): 1.01 ± 0.015
- relative viability (SK-LMS-1; 0.00051 µM): 1.04 ± 0.014
- relative viability (SK-LMS-1; 0.00152 µM): 1.04 ± 0.019
- relative viability (SK-LMS-1; 0.00457 µM): 1.03 ± 0.032
- relative viability (SK-LMS-1; 0.01372 µM): 1.022 ± 0.0083
- relative viability (SK-LMS-1; 0.04115 µM): 1.01 ± 0.051
- relative viability (SK-LMS-1; 0.1235 µM): 1.05 ± 0.051
- relative viability (SK-LMS-1; 0.3704 µM): 0.959 ± 0.046
- relative viability (SK-LMS-1; 1.111 µM): 0.96 ± 0.03
- relative viability (SK-LMS-1; 3.333 µM): 0.794 ± 0.093
- relative viability (SK-LMS-1; 10 µM): 0.00573 ± 0.00047
- relative viability (G401; 0.00017 µM): 0.953 ± 0.026
- relative viability (G401; 0.00051 µM): 0.932 ± 0.049
- relative viability (G401; 0.00152 µM): 0.971 ± 0.035
- relative viability (G401; 0.00457 µM): 0.974 ± 0.011
- relative viability (G401; 0.01372 µM): 0.972 ± 0.033
- relative viability (G401; 0.04115 µM): 0.961 ± 0.031
- relative viability (G401; 0.1235 µM): 0.918 ± 0.022
- relative viability (G401; 0.3704 µM): 0.788 ± 0.0017
- relative viability (G401; 1.111 µM): 0.615 ± 0.043
- relative viability (G401; 3.333 µM): 0.416 ± 0.045
- relative viability (G401; 10 µM): -0.00287 ± 0.00021
- relative viability (RD-ES; 0.00017 µM): 0.94 ± 0.033
- relative viability (RD-ES; 0.00051 µM): 0.938 ± 0.063
- relative viability (RD-ES; 0.00152 µM): 0.955 ± 0.053
- relative viability (RD-ES; 0.00457 µM): 0.957 ± 0.026
- relative viability (RD-ES; 0.01372 µM): 0.955 ± 0.057
- relative viability (RD-ES; 0.04115 µM): 0.943 ± 0.054
- relative viability (RD-ES; 0.1235 µM): 0.89 ± 0.032
- relative viability (RD-ES; 0.3704 µM): 0.681 ± 0.044
- relative viability (RD-ES; 1.111 µM): 0.454 ± 0.022
- relative viability (RD-ES; 3.333 µM): 0.304 ± 0.032
- relative viability (RD-ES; 10 µM): 0.00243 ± 0.00094
- relative viability (KHOS-NP; 0.00017 µM): 1.04 ± 0.021
- relative viability (KHOS-NP; 0.00051 µM): 1.04 ± 0.01
- relative viability (KHOS-NP; 0.00152 µM): 1.04 ± 0.027
- relative viability (KHOS-NP; 0.00457 µM): 1.06 ± 0.032
- relative viability (KHOS-NP; 0.01372 µM): 1.06 ± 0.029
- relative viability (KHOS-NP; 0.04115 µM): 1.05 ± 0.0023
- relative viability (KHOS-NP; 0.1235 µM): 1.05 ± 0.019
- relative viability (KHOS-NP; 0.3704 µM): 1.02 ± 0.03
- relative viability (KHOS-NP; 1.111 µM): 1.02 ± 0.044
- relative viability (KHOS-NP; 3.333 µM): 0.95 ± 0.056
- relative viability (KHOS-NP; 10 µM): 0.0055 ± 0.00096
- relative viability (SW872; 0.00017 µM): 1 ± 0.011
- relative viability (SW872; 0.00051 µM): 1.02 ± 0.023
- relative viability (SW872; 0.00152 µM): 1.07 ± 0.04
- relative viability (SW872; 0.00457 µM): 1.06 ± 0.027
- relative viability (SW872; 0.01372 µM): 1.09 ± 0.032
- relative viability (SW872; 0.04115 µM): 1.04 ± 0.029
- relative viability (SW872; 0.1235 µM): 1 ± 0.038
- relative viability (SW872; 0.3704 µM): 0.946 ± 0.057
- relative viability (SW872; 1.111 µM): 0.8717 ± 0.0073
- relative viability (SW872; 3.333 µM): 0.631 ± 0.031
- relative viability (SW872; 10 µM): -0.00807 ± 0.00038
- relative viability (MES-SA; 0.00017 µM): 0.953 ± 0.036
- relative viability (MES-SA; 0.00051 µM): 0.92 ± 0.065
- relative viability (MES-SA; 0.00152 µM): 0.95 ± 0.028
- relative viability (MES-SA; 0.00457 µM): 0.951 ± 0.026
- relative viability (MES-SA; 0.01372 µM): 0.963 ± 0.046
- relative viability (MES-SA; 0.04115 µM): 0.969 ± 0.033
- relative viability (MES-SA; 0.1235 µM): 0.96 ± 0.022
- relative viability (MES-SA; 0.3704 µM): 0.98 ± 0.028
- relative viability (MES-SA; 1.111 µM): 0.94 ± 0.023
- relative viability (MES-SA; 3.333 µM): 0.676 ± 0.039
- relative viability (MES-SA; 10 µM): -0.00177 ± 0.00067
- relative viability (VA-ES-BJ; 0.00017 µM): 1.05 ± 0.036
- relative viability (VA-ES-BJ; 0.00051 µM): 1.04 ± 0.035
- relative viability (VA-ES-BJ; 0.00152 µM): 1.04 ± 0.033
- relative viability (VA-ES-BJ; 0.00457 µM): 1.05 ± 0.024
- relative viability (VA-ES-BJ; 0.01372 µM): 1.06 ± 0.012
- relative viability (VA-ES-BJ; 0.04115 µM): 1.03 ± 0.015
- relative viability (VA-ES-BJ; 0.1235 µM): 1.02 ± 0.037
- relative viability (VA-ES-BJ; 0.3704 µM): 0.975 ± 0.018
- relative viability (VA-ES-BJ; 1.111 µM): 0.954 ± 0.054
- relative viability (VA-ES-BJ; 3.333 µM): 0.929 ± 0.035
- relative viability (VA-ES-BJ; 10 µM): -0.008 ± 0.0015
- relative viability (SW1353; 0.00017 µM): 0.94 ± 0.04
- relative viability (SW1353; 0.00051 µM): 0.939 ± 0.037
- relative viability (SW1353; 0.00152 µM): 0.969 ± 0.032
- relative viability (SW1353; 0.00457 µM): 0.953 ± 0.025
- relative viability (SW1353; 0.01372 µM): 0.948 ± 0.029
- relative viability (SW1353; 0.04115 µM): 0.953 ± 0.035
- relative viability (SW1353; 0.1235 µM): 0.932 ± 0.015
- relative viability (SW1353; 0.3704 µM): 0.89 ± 0.036
- relative viability (SW1353; 1.111 µM): 0.901 ± 0.086
- relative viability (SW1353; 3.333 µM): 0.137 ± 0.2
- relative viability (SW1353; 10 µM): 0.00227 ± 0.0014
- relative viability (HT1080; 0.00017 µM): 1.02 ± 0.092
- relative viability (HT1080; 0.00051 µM): 1.01 ± 0.065
- relative viability (HT1080; 0.00152 µM): 1.02 ± 0.026
- relative viability (HT1080; 0.00457 µM): 1.04 ± 0.035
- relative viability (HT1080; 0.01372 µM): 1.02 ± 0.019
- relative viability (HT1080; 0.04115 µM): 1.06 ± 0.017
- relative viability (HT1080; 0.1235 µM): 1.04 ± 0.046
- relative viability (HT1080; 0.3704 µM): 1.03 ± 0.048
- relative viability (HT1080; 1.111 µM): 0.983 ± 0.029
- relative viability (HT1080; 3.333 µM): 0.777 ± 0.033
- relative viability (HT1080; 10 µM): -0.000267 ± 0.00081
- relative viability (RD; 0.00017 µM): 0.996 ± 0.055
- relative viability (RD; 0.00051 µM): 1.02 ± 0.032
- relative viability (RD; 0.00152 µM): 1.04 ± 0.05
- relative viability (RD; 0.00457 µM): 0.996 ± 0.039
- relative viability (RD; 0.01372 µM): 1.03 ± 0.036
- relative viability (RD; 0.04115 µM): 1.02 ± 0.071
- relative viability (RD; 0.1235 µM): 0.947 ± 0.034
- relative viability (RD; 0.3704 µM): 0.771 ± 0.052
- relative viability (RD; 1.111 µM): 0.576 ± 0.045
- relative viability (RD; 3.333 µM): 0.381 ± 0.031
- relative viability (RD; 10 µM): 0.001 ± 0.00044
- relative viability (SW684; 0.00017 µM): 1.07 ± 0.033
- relative viability (SW684; 0.00051 µM): 1.083 ± 0.0088
- relative viability (SW684; 0.00152 µM): 1.09 ± 0.02
- relative viability (SW684; 0.00457 µM): 1.08 ± 0.018
- relative viability (SW684; 0.01372 µM): 1.12 ± 0.028
- relative viability (SW684; 0.04115 µM): 1.095 ± 0.0027
- relative viability (SW684; 0.1235 µM): 1.122 ± 0.0065
- relative viability (SW684; 0.3704 µM): 1.08 ± 0.051
- relative viability (SW684; 1.111 µM): 1.15 ± 0.065
- relative viability (SW684; 3.333 µM): 0.883 ± 0.026
- relative viability (SW684; 10 µM): -0.0212 ± 0.00038
- relative viability (SK-ES-1; 0.00017 µM): 0.967 ± 0.038
- relative viability (SK-ES-1; 0.00051 µM): 0.984 ± 0.044
- relative viability (SK-ES-1; 0.00152 µM): 1 ± 0.026
- relative viability (SK-ES-1; 0.00457 µM): 0.974 ± 0.048
- relative viability (SK-ES-1; 0.01372 µM): 0.961 ± 0.028
- relative viability (SK-ES-1; 0.04115 µM): 0.995 ± 0.027
- relative viability (SK-ES-1; 0.1235 µM): 0.914 ± 0.05
- relative viability (SK-ES-1; 0.3704 µM): 0.6537 ± 0.0025
- relative viability (SK-ES-1; 1.111 µM): 0.339 ± 0.018
- relative viability (SK-ES-1; 3.333 µM): 0.102 ± 0.01
- relative viability (SK-ES-1; 10 µM): 0.000733 ± 0.00058
